system: Target C; assay: HiBiT protein abundance assay, Target C (Promega Nano-Glo HiBiT Lytic Detection System, knock-in K562 cell line); type: cell-based, human; conditions: Homo sapiens, K562, 24 h, HiBiT K562 cell line, 24 hours, top dose 10 μM; read-out: Effect on protein abundance, Target C (IC50 category)
How it was run: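 HiBiT knock-in K562 cells (10,000/well) were treated for 24 h at 37 °C with a 10-point 3-fold dilution series, top final concentration 10 μM, DMSO ≤0.25%. Lytic HiBiT luminescence was read, normalized to unmodified K562 and DMSO-treated controls, and IC50 was interpolated from a four-parameter logistic fit.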

IC50	Compound
1 to 10 µM	Cc1cn2cc(-c3cc(F)c4c(=O)n([C@H]5CCNC[C@@H]5F)cnc4c3)cc(F)c2n1 (relative stereo) [Compound 341, 5-fluoro-7-(8-fluoro-2-methylimidazo[1,2-a]pyridin-6-yl)-3-(trans-3-fluoropiperidin-4-yl)quinazolin-4(3H)-one]
0.1 to 1 µM	Cc1cn2cc(-c3cc(F)c4c(=O)n([C@H]5CCN[C@@H](C)C5)cnc4c3)cc(F)c2n1 (relative stereo) [Compound 343, cis-5-fluoro-7-(8-fluoro-2-methylimidazo[1,2-a]pyridin-6-yl)-3-(2-methylpiperidin-4-yl)quinazolin-4(3H)-one]
> 10 µM	CN1CCN(c2ccc3c(=O)n(-c4ccc5nn(C)cc5c4)cnc3c2)CC1 [Compound 152]
> 10 µM	Cn1cc2cc(-n3cnc4cc(N5CCNCC5)ccc4c3=O)ccc2n1 [Compound 153]
0.1 to 1 µM	CCN1CCC(n2ncc3cc(-c4cc(C)c5nc(C)cn5n4)ccc3c2=O)CC1 [Compound 266]
1 to 10 µM	Cc1cn2nc(-c3ccc4c(c3)CCN(C3CCNC(C)(C)C3)C4=O)cc(C)c2n1 (stereo not shown) [Compound 267]
> 10 µM	CCN1CCC(N2CCc3cc(-c4cc(C)c5nc(C)cn5n4)ccc3C2=O)CC1 [Compound 270]
1 to 10 µM	Cc1cn2nc(-c3ccc4c(=O)n(C5CCN(C)C5)ncc4c3)cc(C)c2n1 (stereo not shown) [Compound 271]
< 0.1 µM	Cc1cn2nc(-c3ccc4c(=O)n(C5CCNC6(CC6)C5)ncc4c3)cc(C)c2n1 (stereo not shown) [Compound 274]
> 10 µM	Cc1cn2nc(-c3ccc4c(c3)CCN(C3CCN(C)C3)C4=O)cc(C)c2n1 (stereo not shown) [Compound 282]
> 10 µM	O=c1c2ccc(-c3cn[nH]c3)cc2ncn1C1CCNCC1 [Compound 284]
1 to 10 µM	Cc1nc2c(F)cc(-c3ccc4c(=O)n(C5CCNCC5)cnc4c3)cc2s1 [Compound 285]
1 to 10 µM	Cc1cn2cc(-c3ccc4c(=O)n(C5CCNCC5)cnc4c3)nc2c(C)n1 [Compound 286]
0.1 to 1 µM	Cc1cn2nc(-c3ccc4c(=O)n(C5CCNCC5)cnc4c3)nc2c(C)n1 [Compound 287, 7-{6,8-dimethyl-[1,2,4]triazolo[1,5-a]pyrazin-2-yl}-3-(piperidin-4-yl)quinazolin-4-one]
> 10 µM	CN1CCC(n2cnc3cc(-c4cn[nH]c4)ccc3c2=O)CC1 [Compound 299]
1 to 10 µM	Cc1nc2c(F)cc(-c3ccc4c(=O)n(C5CCN(C)CC5)cnc4c3)cc2o1 [Compound 300]
1 to 10 µM	Cc1nc2c(F)cc(-c3ccc4c(=O)n(C5CCN(C)CC5)cnc4c3)cc2s1 [Compound 301]
0.1 to 1 µM	CC[C@@H]1C[C@H](n2ncc3cc(-c4cc(C)c5nc(C)cn5n4)ccc3c2=O)CCN1 [Compound 304]
0.1 to 1 µM	Cc1cn2nc(-c3ccc4c(=O)n(C5CCN(C)CC5)ccc4c3)cc(C)c2n1 [Compound 310]
1 to 10 µM	Cc1cc(-c2cnc3c(=O)n(C4CCNCC4)cnc3c2)cc2cn(C)nc12 [Compound 311]
< 0.1 µM	Cc1cn2nc(-c3cc(F)c4c(=O)n(C5CCNC6(CC6)C5)ncc4c3)cc(C)c2n1 (stereo not shown) [Compound 312]
> 10 µM	Cn1cc2cc(-c3cc(F)c4c(=O)n(C5CCNCC5)cnc4c3)cc(F)c2n1 [Compound 314]
0.1 to 1 µM	Cc1cn2cc(-c3cc(F)c4c(=O)n(C5CCNCC5)cnc4c3)cc(C)c2n1 [Compound 317]
0.1 to 1 µM	Cc1cn2nc(-c3cc(F)c4c(=O)n(C5CCNCC5)cnc4c3)cc2c(C)n1 [Compound 318]
< 0.1 µM	Cc1cn2nc(-c3cc(F)c4c(=O)n(C5CCNCC5)ccc4c3)cc(C)c2n1 [Compound 322]
0.1 to 1 µM	Cc1cn2cc(-c3cc(F)c4c(=O)n(N5CCNCC5)cnc4c3)cc(F)c2n1 [Compound 340, 5-fluoro-7-{8-fluoro-2-methylimidazo[1,2-a]pyridin-6-yl}-3-(piperazin-1-yl)quinazolin-4-one]
> 10 µM	Cc1cn2cc(-c3cc(F)c4c(=O)n([C@H]5CNCC[C@@H]5O)cnc4c3)cc(F)c2n1 [Compound 348, 5-fluoro-7-{8-fluoro-2-methylimidazo[1,2-a]pyridin-6-yl}-3-[(3S,4S)-4-hydroxypiperidin-3-yl]quinazolin-4-one]
1 to 10 µM	Cc1cn2nc(-c3ccc4c(=O)n([C@H]5CCNC6(CC6)C5)cnc4c3)cc(C)c2n1 [Compound 349, 3-[(7S)-4-azaspiro[2.5]octan-7-yl]-7-{2,8-dimethylimidazo[1,2-b]pyridazin-6-yl}quinazolin-4-one]

More lines, now with the values behind:

Compound	IC50
Cc1cn2nc(-c3cc(F)c4c(=O)n([C@H]5CCNC6(CC6)C5)cnc4c3)cc(C)c2n1 (single isomer, unassigned) [Compound 357]	< 0.1 µM
Cc1cc(-c2ccc3c(=O)n(C4CCN(C)CC4)cnc3c2)cc2cn(C)nc12 [Compound 156]	> 10 µM
Cc1cc(-c2ccc3c(=O)n(C4CC(C)(C)NC(C)(C)C4)cnc3c2)cc2cn(C)nc12 [Compound 157]	1 to 10 µM
Cn1cc2cc(-n3cnc4cc(C5=CCNCC5)ccc4c3=O)ccc2n1 [Compound 158]	1 to 10 µM
CN1CC=C(c2ccc3c(=O)n(-c4ccc5nn(C)cc5c4)cnc3c2)CC1 [Compound 159]	> 10 µM
Cc1cn2nc(-c3ccc4c(c3)CCN(C3CCN(C)CC3)C4=O)cc(C)c2n1 [Compound 268]	> 10 µM
Cc1cn2nc(-c3ccc4c(c3)CCN(C3CCNC3)C4=O)cc(C)c2n1 (stereo not shown) [Compound 269]	1 to 10 µM
Cc1cn2nc(-c3ccc4c(=O)n([C@@H]5CCN[C@H](C)C5)ncc4c3)cc(C)c2n1 [Compound 272]	0.1 to 1 µM
Cc1cn2cc(-c3ccc4c(=O)n(C5CCNCC5)ccc4c3)cc(F)c2n1 [Compound 276]	< 0.1 µM
Cc1cn2nc(-c3ccc4c(=O)n([C@@H]5CCN(C)[C@H](C)C5)ncc4c3)cc(C)c2n1 [Compound 277]	0.1 to 1 µM
Cc1cn2nc(-c3ccc4c(=O)n([C@H]5CCN(C)[C@H](C)C5)ncc4c3)cc(C)c2n1 [Compound 278]	< 0.1 µM
Cc1cn2nc(-c3ccc4c(=O)n(C5CCNC(C)(C)C5)ncc4c3)cc(C)c2n1 (stereo not shown) [Compound 279]	< 0.1 µM
Cc1cn2nc(-c3ccc4c(=O)n([C@@H]5C[C@H]6CC[C@@H](C5)N6)ncc4c3)cc(C)c2n1 [Compound 280]	0.1 to 1 µM
Cc1cn2nc(-c3ccc4c(c3)CCN([C@@H]3CCN[C@H](C)C3)C4=O)cc(C)c2n1 [Compound 281]	1 to 10 µM
Cc1cn2nc(-c3ccc4c(=O)n(C5CCCNCC5)ncc4c3)cc(C)c2n1 (stereo not shown) [Compound 283]	0.1 to 1 µM
Cc1cn2nc(-c3ccc4c(=O)n(C5CCN(C)CC5)cnc4c3)nc2c(C)n1 [Compound 288, 7-{6,8-dimethyl-[1,2,4]triazolo[1,5-a]pyrazin-2-yl}1-3-(1-methylpiperidin-4-yl)quinazolin-4-one]	1 to 10 µM
Cc1cn2nc(-c3ccc4c(=O)n(C5CCN(C)CC5)cnc4c3F)cc(C)c2n1 [Compound 290]	0.1 to 1 µM
Cc1cn2cc(-c3ccc4c(=O)n(C5CCNCC5)cnc4c3)cc(Cl)c2n1 [Compound 291]	0.1 to 1 µM
Cc1cn2cc(-c3ccc4c(=O)n(C5CCNCC5)cnc4c3)cc(C)c2n1 [Compound 292]	1 to 10 µM
Cc1cn2cc(-c3ccc4c(=O)n([C@@H]5CCN[C@@H](C)C5)cnc4c3)cc(F)c2n1 [Compound 293]	1 to 10 µM

Compound	IC50
Cc1cn2cc(-c3ccc4c(=O)n(C5CCN[C@@H](C)C5)cnc4c3)cc(F)c2n1 (stereo partly shown) [Compound 294]	1 to 10 µM
Cc1cn2cc(-c3ccc4c(=O)n([C@@H]5CCN[C@H](C)C5)cnc4c3)cc(F)c2n1 [Compound 295]	1 to 10 µM
Cc1cn2cc(-c3ccc4c(=O)n([C@H]5CCN[C@H](C)C5)cnc4c3)cc(F)c2n1 [Compound 296]	0.1 to 1 µM
Cc1cn2cc(-c3ccc4c(=O)n(C5CCNCC5)cnc4c3)ncc2n1 [Compound 297]	1 to 10 µM
Cc1cn2nc(-c3ccc4c(=O)n(C5CCNCC5)cnc4c3)cc2c(C)n1 [Compound 298]	1 to 10 µM
Cc1cn2cc(-c3ccc4c(=O)n(C5CCN(C)CC5)cnc4c3)nc2c(C)n1 [Compound 302]	1 to 10 µM
Cc1cn2nc(-c3ccc4c(=O)n(C5CCN(C)CC5)cnc4c3)cc2c(C)n1 [Compound 303]	1 to 10 µM
Cc1cn2cc(-c3ccc4c(=O)n(C5CCNCC5)cnc4c3)cc(C(F)(F)F)c2n1 [Compound 306]	1 to 10 µM
Cc1cn2cc(-c3ccc4c(=O)n(C5CCN(C)CC5)cnc4c3)ncc2n1 [Compound 308]	1 to 10 µM
Cn1cc2cc(-c3cc(F)c4c(=O)n(C5CCNCC5)cnc4c3)c(F)cc2n1 [Compound 315]	1 to 10 µM
Cn1cc2cc(-c3cc(F)c4c(=O)n(C5CCNCC5)cnc4c3)cc(C#N)c2n1 [Compound 316]	0.1 to 1 µM
Cc1cn2cc(-c3cc(F)c4c(=O)n(C5CCNCC5)cnc4c3)nc2c(C)n1 [Compound 319]	1 to 10 µM
COc1cc(-c2cc(F)c3c(=O)n(C4CCNCC4)cnc3c2)cnn1 [Compound 320]	> 10 µM
Cc1cn2cc(-c3cc(F)c4c(=O)n([C@H]5CCNC[C@H]5F)cnc4c3)cc(F)c2n1 [Compound 338]	1 to 10 µM
Cc1cn2cc(-c3cc(F)c4c(=O)n(C5CCNCC5(F)F)cnc4c3)cc(F)c2n1 (stereo not shown) [Compound 339]	> 10 µM
Cc1cn2cc(-c3cc(F)c4c(=O)n(C5=CCNCC5)cnc4c3)cc(F)c2n1 [Compound 342]	0.1 to 1 µM
Cc1cn2nc(-c3cc(N(C)C)c4c(=O)n(C5CCNC6(CC6)C5)cnc4c3)cc(C)c2n1 (stereo not shown) [Compound 345]	> 10 µM
Cc1cn2cc(-c3cc(F)c4c(=O)n([C@H]5CCN[C@H](C)C5)cnc4c3)cc(F)c2n1 [Compound 346, trans-5-fluoro-7-(8-fluoro-2-methylimidazo[1,2-a]pyridin-6-yl)-3-(2-methylpiperidin-4-yl)quina-zolin-4(3H)-one]	0.1 to 1 µM
Cc1cn2cc(-c3cc(F)c4c(=O)n([C@H]5CCNC[C@@H]5O)cnc4c3)cc(F)c2n1 [Compound 347, 5-fluoro-7-{8-fluoro-2-methylimidazo[1,2-a]pyridin-6-yl}-3-[(3S,4S)-3-hydroxypiperidin-4-yl]quinazolin-4-one]	> 10 µM

Source: patent publication US20250332173A1, “COMPOUNDS AND METHODS FOR MODULATING NUCLEIC ACID SPLICING” (REMIX THERAPEUTICS INC., priority 2021, published 2025)
